# Experimental data taken from publication PMC10193966, “Structure of WNT inhibitor adenomatosis polyposis coli down-regulated 1 (APCDD1), a cell-surface lipid-binding protein” (Proceedings of the National Academy of Sciences of the …, 2023).
# Molecular target: T1, eMBP-APCDD1 (APCDD1 ECD; lipid in ABD2) (Mus musculus, UniProt Q3U128)
# T1 construct: extracellular domain residues 47-481, N-terminal engineered MBP fusion, C-terminal 8xHis; secreted from HEK293T (kifunensine); Endo-F1 and carboxypeptidase A/B treated in situ; single-span membrane protein without TM
# Test: X-ray crystal structure ([…] Å); HPLC/MS of extract from purified APCDD1
# Type: binding
# Conditions: co-purified lipid from HEK293 expression with 2% serum; ABD2 hydrophobic pocket, chains A and C; MS sample named only purified APCDD1
# T1 sequence (Q3U128 47-481): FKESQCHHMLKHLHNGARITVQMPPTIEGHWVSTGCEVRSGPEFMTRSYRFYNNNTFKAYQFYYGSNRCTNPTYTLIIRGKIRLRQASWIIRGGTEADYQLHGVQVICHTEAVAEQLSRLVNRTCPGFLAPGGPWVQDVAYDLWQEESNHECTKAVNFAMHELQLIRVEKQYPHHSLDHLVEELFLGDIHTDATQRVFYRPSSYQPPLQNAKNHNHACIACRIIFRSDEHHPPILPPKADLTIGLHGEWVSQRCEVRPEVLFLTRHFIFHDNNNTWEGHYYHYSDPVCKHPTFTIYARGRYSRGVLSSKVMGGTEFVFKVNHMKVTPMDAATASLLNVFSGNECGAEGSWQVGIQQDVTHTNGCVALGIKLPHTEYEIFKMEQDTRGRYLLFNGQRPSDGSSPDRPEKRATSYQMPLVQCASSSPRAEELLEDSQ
smiles,measurement,value
CCCCCCCCCCCCCCCCCC(=O)O [stearic acid],X-ray crystal structure (2.3 Å); HPLC/MS of extract from purified APCDD1,"This analysis revealed stearic acid, a C18 fatty acid"
